Test results as given in patent US20020137154A1, “Methods for improving cell growth and alcohol production during fermentation” (priority 2000, published 2002).

How the values were obtained:
Assay type in all cases: cell-based
[1] = tested on: recombinant Escherichia coli KO11; experiment: Batch fermentation of E. coli KO11 in 1% CSL medium and xylose with nutrient additives: ethanol production and cell growth; details: additive 2 g/L unless indicated; for Ethanol Production Maximum / Ethanol Production Maximum % Control / Ethanol yield / Initial Growth (OD @ 24 h) % Control / Initial Growth (OD @ 24 h) OD / Maximum Cell Density % Control / Maximum Cell Density OD / Maximum Cell Density Time / Time to completion / Volumetric Productivity Average / Volumetric Productivity Average % Control / Volumetric Productivity Maximum / Volumetric Productivity Maximum % Control: 1% CSL+xylose; for activity at 2000 µg/mL: Escherichia coli
Method: (§1) Two types of media were tested: 1% CSL and Luria broth (LB). Each contained 97 g of either xylose or glucose per liter. Luria Broth consists of, per liter: 10 g Difco® Tryptone, 5 g Difco® Yeast Extract and 5 g NaCl. The 1% CSL medium consists of Corn Steep Liquor (1% w/v) plus mineral salts (mineral salts per liter: 1 g of KH2PO4. 0.5 g of K2HPO4, 3.1 g of (NH4)2SO4, 0.4 g of MgCl2·6H2), and 20 mg FeCl3·6H2O).
(§2) Luria Broth was prepared by autoclaving a 2× nutrient stock containing, per liter: 20 g Difco® Tryptone, 10 g Difo® Yeast Extract, and 10 g NaCl. Sugars (xylose or glucose) were autoclaved separately. A 1% CSL medium was prepared as follows: Commercial Corn Steep Liquor (CSL; 50% dry weight/50% water) was diluted with tap water to make a 20X stock containing 100 g dry weight of Corn Steep Liquor/L and was adjusted to pH 7.2 with NaOH (50%). After sterilization by autoclaving, the 20X CSL stock was clarified by centrifugation at 5000×g for 10 minutes. Magnesium was added as a 100× stock solution (40 g/L MgCl2·6H2O). Iron was added as a 1000× stock solution made by dissolving 20 g FeCl3·6H2O in 175 mL of HCl and adjusting to 1 L with sterile water. Nitrogen, sulfur and phosphorus were added using a 20× stock solution containing the following (per liter): 20 g of KH2PO4, 10 g of K2HPO4 and 62 g of (NH4)2SO4. Stock solutions containing minerals were sterilized separately by autoclaving. Final media was prepared by adding 750 mL of water to 1 L bottle containing 100 g of xylose or glucose.
Inocula were grown in same media used for fermentation and were prepared as follows. Three colonies from a fresh plate were used to inoculate seed cultures: 250-mL flask containing 100 mL medium. These cultures were grown with agitation (120 rpm) for 12-16 hours at 35° C. to a final OD550nm of approximately 2.0-2.5. Cells were harvested by centrifugation at 5000×g for 5 minutes, and resuspended in fresh media to an OD550nm of 0.1. The resulting suspension was distributed into 500-mL beakers containing 345 ml each of fermentation medium. Acetaldehyde was added as indicated. Batch fermentations (35° C., 100 rpm) were maintained at pH 6.5 by the automatic addition of 2N KOH. Cell mass, ethanol, and base addition (2N KOH) were recorded during 96 hours of incubation. […]
(§3) Additives (e.g., as listed in Table 1) were dissolved in 5 mL di-H2O. Solutions with pH lower than 5 were neutralized to pH 6.5 with 2N KOH. Nutritional supplements were then filter-sterilized (0.45 μm filter disk) directly into the fermentation vessel containing the culture. The final concentration of all additives in the culture medium was 2 g/L unless otherwise indicated.
(§4) Cell mass was estimated by measuring OD550nm using Baush & Lomb® Spectronic 70 spectrophotometer. […] Ethanol was measured by gas chromatography using a Varian® 3400 CX gas chromatograph with 1-propanol as an internal standard.
(§5) Tables 1, 3, and 5 show time to completion of fermentation, ethanol production, and volumetric productivity of the fermentation for all concentrations of the compound and the control. Maximum ethanol production is shown in grams/liter (g/L). The ethanol yield is shown in grams of ethanol/grams of added sugar. Maximum volumetric productivity is shown in grams ethanol/(liter)(hour). The average productivity is calculated form the start of fermentation to the completion of fermentation is grams ethanol/(liter)hour).
Tables 2, 4, and 6 show the initial growth of the cells (OD taken after the first 24 hours of fermentation) and the maximum cell density (the time which culture reaches the maximum OD value). […]

[2] = tested on: recombinant Escherichia coli KO11; experiment: Batch fermentation of E. coli KO11 in Luria broth and xylose with nutrient additives: ethanol production and cell growth; details: LB+xylose; additive 2 g/L unless indicated
Method: as §1, §2
(§6) Inocula were grown in same media used for fermentation and were prepared as follows. Three colonies from a fresh plate were used to inoculate seed cultures: 250-mL flask containing 100 mL medium. These cultures were grown with agitation (120 rpm) for 12-16 hours at 35° C. to a final OD550nm of approximately 2.0-2.5. Cells were harvested by centrifugation at 5000×g for 5 minutes, and resuspended in fresh media to an OD550nm of 0.1. The resulting suspension was distributed into 500-mL beakers containing 345 ml each of fermentation medium. Acetaldehyde was added as indicated. Batch fermentations (35° C., 100 rpm) were maintained at pH 6.5 by the automatic addition of 2N KOH. Cell mass, ethanol, and base addition (2N KOH) were recorded during 96 hours of incubation.
(§7) Equivalent amounts of distilled water were added instead of the acetaldehyde in control experiments.
as §3, §4, §5
(§8) Tables 2, 4, and 6 show the initial growth of the cells (OD taken after the first 24 hours of fermentation) and the maximum cell density (the time which culture reaches the maximum OD value).
(§9) Acetaldehyde was added to the fermentation medium at five different concentrations and time points. […] Where two additions are indicated, the first volume was added at the start of fermentation and the second was added after 8 hours of fermentation.

[3] = tested on: recombinant Escherichia coli KO11; experiment: Batch fermentation of E. coli KO11 in 1% CSL medium and glucose with nutrient additives: ethanol production and cell growth; details: additive 2 g/L unless indicated; for Ethanol Production Maximum / Ethanol Production Maximum % Control / Ethanol yield / Initial Growth (OD @ 24 h) % Control / Initial Growth (OD @ 24 h) OD / Maximum Cell Density % Control / Maximum Cell Density OD / Maximum Cell Density Time / Time to completion / Volumetric Productivity Average / Volumetric Productivity Average % Control / Volumetric Productivity Maximum / Volumetric Productivity Maximum % Control: 1% CSL+glucose; for activity at 2000 µg/mL: Escherichia coli
Method: as §1, §2, §6, §7, §3, §4, §5, §8, §9

[4] = 24 h, read-out: Initial Growth (OD @ 24 h) % Control, 1% CSL+xylose
[5] = read-out: Ethanol Production Maximum % Control, 1% CSL+xylose
[6] = read-out: Maximum Cell Density % Control, 1% CSL+xylose
[7] = read-out: Volumetric Productivity Average % Control, 1% CSL+xylose
[8] = read-out: Volumetric Productivity Maximum % Control, 1% CSL+xylose
[9] = 24 h, read-out: Initial Growth (OD @ 24 h) % Control, 1% CSL+glucose
[10] = read-out: Ethanol Production Maximum % Control, 1% CSL+glucose
[11] = read-out: Maximum Cell Density % Control, 1% CSL+glucose
[12] = read-out: Volumetric Productivity Average % Control, 1% CSL+glucose
[13] = read-out: Volumetric Productivity Maximum % Control, 1% CSL+glucose

SMILES	Ethanol Production Maximum [1]	Ethanol Production Maximum % Control [1]	Ethanol yield [1]	Initial Growth (OD @ 24 h) % Control [1]	Initial Growth (OD @ 24 h) OD [1]	Maximum Cell Density % Control [1]	Maximum Cell Density OD [1]	Maximum Cell Density Time [1]	Time to completion [1]	Volumetric Productivity Average [1]	Volumetric Productivity Average % Control [1]	Volumetric Productivity Maximum [1]	Volumetric Productivity Maximum % Control [1]	Ethanol Production Maximum [3]	Ethanol Production Maximum % Control [3]	Ethanol yield [3]	Initial Growth (OD @ 24 h) OD [3]	Maximum Cell Density OD [3]	Volumetric Productivity Average [3]	Volumetric Productivity Maximum [3]	further results
N[C@@H](CCC(=O)O)C(=O)O [Glutamate, glutamate]	43.14 g/L	143.43%	0.444 grams of ethanol/grams of added sugar	180.49%	3.69 OD	200.16%	5.04 OD	96 h	96 h	0.449 grams ethanol/(liter)(hour)	143.43%	0.665 grams ethanol/(liter)(hour)	180.439%	43.39 g/L	117.30%	0.447 grams of ethanol/grams of added sugar	2.86 OD	3.79 OD	0.603 grams ethanol/(liter)(hour)	0.763 grams ethanol/(liter)(hour)	Ethanol Production Maximum [2]: 44.67 g/L; Ethanol Production Maximum % Control [2]: 103.69%; Ethanol yield [2]: 0.460 grams of ethanol/grams of added sugar; Initial Growth (OD at 24 h) % Control [2]: 106.21%; Initial Growth (OD at 24 h) OD [2]: 10.61 OD; Maximum Cell Density % Control [2]: 96.07%; Maximum Cell Density OD [2]: 10.61 OD; Maximum Cell Density Time [2]: 24 h; Time to completion [2]: 48 h; Volumetric Productivity Average [2]: 0.931 grams ethanol/(liter)(hour); Volumetric Productivity Average % Control [2]: 103.69%; Volumetric Productivity Maximum [2]: 1.328 grams ethanol/(liter)(hour); Volumetric Productivity Maximum % Control [2]: 115.30%; Initial Growth (OD @ 24 h) % Control [3]: 107.10%; Maximum Cell Density % Control [3]: 140.94%; Maximum Cell Density Time [3]: 72 h; Time to completion [3]: 72 h; Volumetric Productivity Average % Control [3]: 156.40%; Volumetric Productivity Maximum % Control [3]: 148.52%
O=C(O)CC(O)C(=O)O (stereo not drawn) [Malate, malate]	24.43 g/L		0.252 grams of ethanol/grams of added sugar		1.71 OD		2.42 OD	96 h		0.255 grams ethanol/(liter)(hour)		0.274 grams ethanol/(liter)(hour)		27.58 g/L		0.284 grams of ethanol/grams of added sugar	3.19 OD	3.39 OD	0.287 grams ethanol/(liter)(hour)	0.498 grams ethanol/(liter)(hour)	activity at 2000 µg/mL [1, 4]: 83.9%; activity at 2000 µg/mL [1, 5]: 81.2%; activity at 2000 µg/mL [1, 6]: 96.3%; activity at 2000 µg/mL [1, 7]: 81.2%; activity at 2000 µg/mL [1, 8]: 74.5%; activity at 2000 µg/mL [3, 9]: 119%; activity at 2000 µg/mL [3, 10]: 74.6%; activity at 2000 µg/mL [3, 11]: 126%; activity at 2000 µg/mL [3, 12]: 74.6%; activity at 2000 µg/mL [3, 13]: 97%
O=C(O)CC(=O)C(=O)O [Oxaloacetate]	23.61 g/L		0.243 grams of ethanol/grams of added sugar		1.65 OD		2.26 OD	96 h		0.246 grams ethanol/(liter)(hour)		0.270 grams ethanol/(liter)(hour)		39.72 g/L		0.409 grams of ethanol/grams of added sugar	3.29 OD	3.46 OD	0.552 grams ethanol/(liter)(hour)	0.712 grams ethanol/(liter)(hour)	activity at 2000 µg/mL [1, 4]: 80.8%; activity at 2000 µg/mL [1, 5]: 78.5%; activity at 2000 µg/mL [1, 6]: 89.9%; activity at 2000 µg/mL [1, 7]: 78.5%; activity at 2000 µg/mL [1, 8]: 73.3%; activity at 2000 µg/mL [3, 9]: 123%; activity at 2000 µg/mL [3, 10]: 107%; activity at 2000 µg/mL [3, 11]: 129%; activity at 2000 µg/mL [3, 12]: 143%; activity at 2000 µg/mL [3, 13]: 138%
O=C(O)CCC(=O)O [Succinate, succinate]	35.00 g/L	116.35%	0.360 grams of ethanol/grams of added sugar	103.40%	2.11 OD	124.13%	3.12 OD	96 h	>96 h	0.365 grams ethanol/(liter)(hour)	116.35%	0.400 grams ethanol/(liter)(hour)	108.536%	30.13 g/L	81.46%	0.310 grams of ethanol/grams of added sugar	2.69 OD	2.66 OD	0.314 grams ethanol/(liter)(hour)	0.511 grams ethanol/(liter)(hour)	Initial Growth (OD @ 24 h) % Control [3]: 100.47%; Maximum Cell Density % Control [3]: 98.99%; Maximum Cell Density Time [3]: 72 h; Time to completion [3]: 96 h; Volumetric Productivity Average % Control [3]: 81.46%; Volumetric Productivity Maximum % Control [3]: 99.45%
